Test results reported in patent US9284272B2, “Inhibitors of histone methyltransferase G9a” (AbbVie Inc., priority 2014, dated 2016).

What was measured:
[1] = molecular target: T1, G9a (Homo sapiens, UniProt Q96KQ7); test: Inhibition of G9a, AlphaLISA assay; assay type: biochemical
T1 sequence (Q96KQ7 1-1210): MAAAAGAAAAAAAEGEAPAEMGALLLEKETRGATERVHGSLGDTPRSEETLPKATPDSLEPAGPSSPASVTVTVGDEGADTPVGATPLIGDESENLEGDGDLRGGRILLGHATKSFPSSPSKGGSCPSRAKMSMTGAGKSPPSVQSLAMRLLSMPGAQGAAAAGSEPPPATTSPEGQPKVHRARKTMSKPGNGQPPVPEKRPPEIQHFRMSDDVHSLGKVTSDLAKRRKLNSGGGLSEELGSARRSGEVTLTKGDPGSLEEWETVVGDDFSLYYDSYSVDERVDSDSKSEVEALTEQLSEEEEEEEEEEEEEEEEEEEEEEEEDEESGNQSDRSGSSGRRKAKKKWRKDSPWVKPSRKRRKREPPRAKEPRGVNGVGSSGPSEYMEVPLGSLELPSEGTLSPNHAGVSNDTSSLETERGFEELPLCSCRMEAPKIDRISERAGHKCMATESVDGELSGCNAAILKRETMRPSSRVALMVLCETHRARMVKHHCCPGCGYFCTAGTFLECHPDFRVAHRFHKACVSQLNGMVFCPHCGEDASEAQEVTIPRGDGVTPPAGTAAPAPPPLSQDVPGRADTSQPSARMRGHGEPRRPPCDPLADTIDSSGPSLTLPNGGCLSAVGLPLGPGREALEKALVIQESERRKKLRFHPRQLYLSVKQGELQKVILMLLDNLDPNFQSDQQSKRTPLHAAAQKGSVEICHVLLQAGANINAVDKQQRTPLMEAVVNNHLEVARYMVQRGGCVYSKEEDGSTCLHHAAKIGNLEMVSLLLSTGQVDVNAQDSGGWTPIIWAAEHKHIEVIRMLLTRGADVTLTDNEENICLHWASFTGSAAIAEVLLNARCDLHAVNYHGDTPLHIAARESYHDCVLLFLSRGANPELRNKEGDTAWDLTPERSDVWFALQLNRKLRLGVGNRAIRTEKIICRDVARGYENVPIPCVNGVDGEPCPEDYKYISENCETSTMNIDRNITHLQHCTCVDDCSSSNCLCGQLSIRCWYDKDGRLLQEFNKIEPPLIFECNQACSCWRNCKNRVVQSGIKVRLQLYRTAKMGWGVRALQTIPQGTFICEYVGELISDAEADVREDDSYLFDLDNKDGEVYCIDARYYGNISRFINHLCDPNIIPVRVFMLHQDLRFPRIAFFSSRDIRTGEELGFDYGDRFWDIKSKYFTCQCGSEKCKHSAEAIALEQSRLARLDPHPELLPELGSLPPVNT
Experimental: The G9a assay was conducted in an Alphascreen format to detect methyl modification of a histone H3 peptide by the histone methyl transferase activity of the G9a enzyme.
For the assay, the following buffer was used to set up reactions: 50 mM Tris-HCl pH 7.5, 50 mM NaCl, 1 mM DTT, 0.01% Triton X-100, and 0.005% BSA, with the DTT and BSA added fresh prior to starting the reactions.
IC50 values were calculated by fitting the inhibition percent to the concentration of inhibitor [I] in the assay in equation 1 below, to solve for the IC50.

[2] = test system: MV4;11 cells; test: Differentiation, proliferation, viability and cell cycle of MV4;11 cells, 14 days; assay type: cell-based, human; conditions: MV4;11 cells
Source text: MV4;11 cells are a human acute myelocytic leukemia (AML) cell line derived from a human with leukemia.

| Compound | IC50 [1] | also measured |
| --- | --- | --- |
| COc1cc2c(cc1OCCCN1CCCC1)N=C(N)C2(C)C [Example 16, 5-methoxy-3,3-dimethyl-6-(3-(pyrrolidin-1-yl)propoxy)-3H-indol-2-amine] | 0.9 nM |  |
| COc1cc2c(cc1OC)N=C(N)C2 [Example 6, 5,6-dimethoxy-3H-indol-2-amine] | 14400 nM |  |
| CC1=C(/C=C/C(C)=C/C=C/C(C)=C/C(=O)O)C(C)(C)CCC1 [ATRA, all trans retinoic acid, reference compound] |  | cell cycle analysis (PI staining) ([2]; 0-3 μM): more cells were observed to be in the subG1/G0 phase; expression of marker CD11b by flow cytometry (differentiation) ([2]; 0-3 μM): more cells in the population expressed the marker CD11b; effect on cell viability ([2]; compared with Example 7): less of an effect on cell viability; growth inhibition and expression of CD11b ([2]; increasing concentration): lead to growth inhibition and expression of CD11b |
| COc1cc2c(cc1OCCCn1ccnc1)N=C(N)C21CCC1 [Example 11, 6′-(3-(1H-imidazol-1-yl)propoxy)-5′-methoxyspiro[cyclobutane-1,3′-indol]-2′-amine] | 754 nM |  |
| COc1ccc2c(c1)C1(CCC1)C(N)=N2 [Example 5, 5′-methoxyspiro[cyclobutane-1,3′-indol]-2′-amine] | 18200 nM |  |
| COc1cc2c(cc1OCCCN1CC[C@H](F)C1)N=C(N)C21CCC1 [Example 12, (S)-6′-(3-(3-fluoropyrrolidin-1-yl)propoxy)-5′-methoxyspiro[cyclobutane-1,3′-indol]-2′-amine] | 3.7 nM |  |
| COc1cc2c(cc1OCCCC1CCCC1)N=C(N)C2(C)C [Example 17, 6-(3-cyclopentylpropoxy)-5-methoxy-3,3-dimethyl-3H-indol-2-amine] | 12900 nM |  |
| COc1cc2c(cc1OCCCN1CC[C@@H](F)C1)N=C(N)C21CCC1 [Example 15, (R)-6′-(3-(3-fluoropyrrolidin-1-yl)propoxy)-5′-methoxyspiro[cyclobutane-1,3′-indol]-2′-amine] | 18 nM |  |
| COc1cc2c(cc1OCCCN1CC(F)(F)C1)N=C(N)C21CCC1 [Example 14, 6′-(3-(3,3-difluoroazetidin-1-yl)propoxy)-5′-methoxyspiro[cyclobutane-1,3′-indol]-2′-amine] | 1340 nM |  |

Further lines, with some results ahead:

| IC50 [1] | Compound | also measured |
| --- | --- | --- |
| 1 nM | COc1cc2c(cc1OCC1CCN(C)C1)N=C(N)C21CCC1 (stereo not shown) [Example 8, 5′-methoxy-6′-((1-methylpyrrolidin-3-yl)methoxy)spiro[cyclobutane-1,3′-indol]-2′-amine] |  |
| 5 nM | COc1cc2c(cc1OCC1CCCN1C)N=C(N)C21CCC1 (stereo not shown) [Example 9, 5′-methoxy-6′-((1-methylpyrrolidin-2-yl)methoxy)spiro[cyclobutane-1,3′-indol]-2′-amine] |  |
| 2460 nM | COc1cc2c(cc1OC)C1(CCCC1)C(N)=N2 [Example 4, 5′,6′-dimethoxyspiro[cyclopentane-1,3′-indol]-2′-amine] |  |
| 3540 nM | COc1cc2c(cc1OC)C1(CCCCC1)C(N)=N2 [Example 2, 5′,6′-dimethoxyspiro[cyclohexane-1,3′-indol]-2′-amine] |  |
| 150 nM | COc1cc2c(cc1OCCC1CCCN1C)N=C(N)C21CCC1 (stereo not shown) [Example 10, 5′-methoxy-6′-(2-(1-methylpyrrolidin-2-yl)ethoxy)spiro[cyclobutane-1,3′-indol]-2′-amine] |  |
| 4.8 nM | COc1cc2c(cc1OCCCN1CC(F)C1)N=C(N)C21CCC1 [Example 13, 6′-(3-(3-fluoroazetidin-1-yl)propoxy)-5′-methoxyspiro[cyclobutane-1,3′-indol]-2′-amine] |  |
| 153 nM | COc1cc2c(cc1OC)C1(CCC1)C(N)=N2 [Example 3, 5′,6′-dimethoxyspiro[cyclobutane-1,3′-indol]-2′-amine] |  |
